Assay results as given in ChEMBL document CHEMBL1201862, “PubChem BioAssay data set” (2004).
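Briefly, cells in 96-well plates were exposed to five compound concentrations for 48 h, and endpoints were estimated by linear interpolation. At the GI50, growth is halved.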 Active and inactive are the calls of the source. No stated cut-off is given here; in the data, active = GI50 up to about 1.1 µM and inactive = higher.

Experiments:
Assay in all cases: DTP human tumour cell line panel, 48 h
NCI-H522 = tested on: NCI-H522
OVCAR-3 = tested on: OVCAR-3
K562 = tested on: K562
ACHN = tested on: ACHN
SF-268 = tested on: SF-268
OVCAR-5 = tested on: OVCAR-5
786-0 = tested on: 786-0
SK-OV-3 = tested on: SK-OV-3
HT-29 = tested on: HT-29
IGROV-1 = tested on: IGROV-1
SW-620 = tested on: SW-620
NCI-H226 = tested on: NCI-H226
HOP-92 = tested on: HOP-92
OVCAR-8 = tested on: OVCAR-8
SK-MEL-5 = tested on: SK-MEL-5
A498 = tested on: A498
OVCAR-4 = tested on: OVCAR-4

Which results are given for COC(=O)/C=C(\C(=O)OC)c1c2c3c(cc(OC)c(OC)c3c3ccccc13)CCN2C?
GI50 (NCI-H522): 23.1 µM (inactive); GI50 (OVCAR-3): 28.2 µM (inactive); GI50 (K562): 26.2 µM (inactive); GI50 (ACHN): 40.6 µM (inactive); GI50 (SF-268): > 100 µM (inactive); GI50 (OVCAR-5): > 100 µM (inactive); GI50 (786-0): 70.8 µM (inactive); GI50 (SK-OV-3): 62.4 µM (inactive); GI50 (HT-29): 38.5 µM (inactive); GI50 (IGROV-1): 26.8 µM (inactive); GI50 (SW-620): 35.5 µM (inactive); GI50 (NCI-H226): 29.6 µM (inactive); GI50 (HOP-92): 44.9 µM (inactive); GI50 (OVCAR-8): 45.7 µM (inactive); GI50 (SK-MEL-5): 13.8 µM (inactive)

Which results are given for COc1cc2[nH]c3c(c2cc1OC)CCN[C@]31CC[C@]2(CC3c4c(cc(OC)c(O)c42)CCN3C)C[C@H]1OC (stereo not given in full)?
GI50 (A498): 24.8 µM (inactive); GI50 (OVCAR-3): 21.2 µM (inactive); GI50 (K562): 11.6 µM (inactive); GI50 (ACHN): 24.8 µM (inactive); GI50 (SF-268): 25.5 µM (inactive); GI50 (OVCAR-5): 69.3 µM (inactive); GI50 (786-0): 15.7 µM (inactive); GI50 (SK-OV-3): 25.8 µM (inactive); GI50 (OVCAR-4): 23.8 µM (inactive); GI50 (HT-29): 22.3 µM (inactive); GI50 (IGROV-1): 22.5 µM (inactive); GI50 (SW-620): 22.3 µM (inactive); GI50 (NCI-H226): 45.5 µM (inactive); GI50 (HOP-92): 25.8 µM (inactive); GI50 (OVCAR-8): 19.6 µM (inactive); GI50 (SK-MEL-5): 15 µM (inactive)

Which results are given for CN(C)c1ccc(/C=c2\sc3nnc(-c4ccco4)n3c2=O)cc1?
GI50 (A498): > 100 µM (inactive); GI50 (NCI-H522): > 100 µM (inactive); GI50 (OVCAR-3): > 100 µM (inactive); GI50 (K562): > 100 µM (inactive); GI50 (SF-268): > 100 µM (inactive); GI50 (OVCAR-5): > 100 µM (inactive); GI50 (786-0): > 100 µM (inactive); GI50 (SK-OV-3): > 100 µM (inactive); GI50 (OVCAR-4): > 100 µM (inactive); GI50 (IGROV-1): > 100 µM (inactive); GI50 (SW-620): > 100 µM (inactive); GI50 (NCI-H226): > 100 µM (inactive); GI50 (HOP-92): > 100 µM (inactive); GI50 (OVCAR-8): > 100 µM (inactive); GI50 (SK-MEL-5): > 100 µM (inactive)

With COC(=O)OCC1OC(N2C(=O)NC(=O)C(I)C2N=[N+]=[N-])CC1OC(=O)OC (stereo not given) as the compound, how does the GI50 (NCI-H522) read?
The GI50 was > 100 µM (inactive).

And the GI50 (OVCAR-3)?
Its GI50 is > 100 µM (inactive).

What about the GI50 (K562) of the same compound?
The GI50 was > 100 µM (inactive).

What about the GI50 (ACHN) of the same compound?
Its GI50 is > 100 µM (inactive).

And the GI50 (SF-268)?
The GI50 was > 100 µM (inactive).

And the GI50 (OVCAR-5)?
Its GI50 is > 100 µM (inactive).

And the GI50 (786-0)?
The GI50 was > 100 µM (inactive).

What about the GI50 (SK-OV-3) of the same compound?
Its GI50 is > 100 µM (inactive).

What about the GI50 (OVCAR-4) of the same compound?
Its GI50 is > 100 µM (inactive).

What about the GI50 (HT-29) of the same compound?
Its GI50 is > 100 µM (inactive).

And the GI50 (IGROV-1)?
The GI50 was > 100 µM (inactive).

What about the GI50 (SW-620) of the same compound?
The GI50 was > 100 µM (inactive).

What about the GI50 (NCI-H226) of the same compound?
The GI50 was > 100 µM (inactive).

And the GI50 (HOP-92)?
Its GI50 is > 100 µM (inactive).

What about the GI50 (OVCAR-8) of the same compound?
Its GI50 is > 100 µM (inactive).

What about the GI50 (SK-MEL-5) of the same compound?
The GI50 was > 100 µM (inactive).

Which GI50 (NCI-H522) does the source give for CCOC(=O)c1sc2c(C(=O)OCC)n3cc(C)cc(C)c3c2c1O here?
The GI50 was 80.4 µM (inactive).

What about the GI50 (OVCAR-3) of the same compound?
Its GI50 is 63.2 µM (inactive).

And the GI50 (K562)?
Its GI50 is > 100 µM (inactive).

What about the GI50 (ACHN) of the same compound?
The GI50 was > 100 µM (inactive).

What about the GI50 (SF-268) of the same compound?
Its GI50 is > 100 µM (inactive).

What about the GI50 (OVCAR-5) of the same compound?
Its GI50 is > 100 µM (inactive).

And the GI50 (786-0)?
Its GI50 is > 100 µM (inactive).

What about the GI50 (SK-OV-3) of the same compound?
Its GI50 is > 100 µM (inactive).

And the GI50 (OVCAR-4)?
Its GI50 is > 100 µM (inactive).

And the GI50 (HT-29)?
Its GI50 is > 100 µM (inactive).

What about the GI50 (IGROV-1) of the same compound?
Its GI50 is > 100 µM (inactive).

And the GI50 (SW-620)?
The GI50 was > 100 µM (inactive).

What about the GI50 (NCI-H226) of the same compound?
The GI50 was > 100 µM (inactive).

What about the GI50 (HOP-92) of the same compound?
Its GI50 is 76.4 µM (inactive).

What about the GI50 (OVCAR-8) of the same compound?
The GI50 was > 100 µM (inactive).

What about the GI50 (SK-MEL-5) of the same compound?
The GI50 was > 100 µM (inactive).

CC(C)(C)c1cc(C(O)(C(F)(F)F)C(F)(F)F)c2c(c1)C(C(F)(F)F)(C(F)(F)F)OC(C(C)(C)C)N2 (stereo not given) was tested. Which GI50 (NCI-H522) did it give?
Its GI50 is 2.75 µM (inactive).

And the GI50 (OVCAR-3)?
The GI50 was 2.58 µM (inactive).

What about the GI50 (K562) of the same compound?
Its GI50 is 2.39 µM (inactive).

And the GI50 (ACHN)?
The GI50 was 2.72 µM (inactive).

And the GI50 (OVCAR-5)?
The GI50 was 10.9 µM (inactive).

What about the GI50 (786-0) of the same compound?
Its GI50 is 3.24 µM (inactive).

And the GI50 (SK-OV-3)?
Its GI50 is 1.43 µM (inactive).

What about the GI50 (OVCAR-4) of the same compound?
The GI50 was 6.28 µM (inactive).

What about the GI50 (HT-29) of the same compound?
The GI50 was 2.69 µM (inactive).

What about the GI50 (IGROV-1) of the same compound?
The GI50 was 4.95 µM (inactive).

And the GI50 (SW-620)?
Its GI50 is 3.21 µM (inactive).

What about the GI50 (NCI-H226) of the same compound?
The GI50 was 2.7 µM (inactive).

What about the GI50 (HOP-92) of the same compound?
The GI50 was < 0.01 µM (active).

And the GI50 (OVCAR-8)?
Its GI50 is 3.05 µM (inactive).

What about the GI50 (SK-MEL-5) of the same compound?
Its GI50 is 1.57 µM (inactive).

CCCNC(=S)NNC(=O)CSc1nc(-c2ccccc2)c(-c2ccccc2)[nH]1 was tested. Which GI50 (A498) did it give?
The GI50 was 77.6 µM (inactive).

What about the GI50 (NCI-H522) of the same compound?
The GI50 was 26.7 µM (inactive).

And the GI50 (OVCAR-3)?
Its GI50 is 28 µM (inactive).

What about the GI50 (ACHN) of the same compound?
The GI50 was 46.7 µM (inactive).

What about the GI50 (SF-268) of the same compound?
Its GI50 is > 100 µM (inactive).

And the GI50 (OVCAR-5)?
Its GI50 is > 100 µM (inactive).

And the GI50 (786-0)?
Its GI50 is 37 µM (inactive).

And the GI50 (SK-OV-3)?
Its GI50 is > 100 µM (inactive).

What about the GI50 (OVCAR-4) of the same compound?
The GI50 was 45.1 µM (inactive).

What about the GI50 (HT-29) of the same compound?
The GI50 was 42 µM (inactive).

And the GI50 (IGROV-1)?
The GI50 was 65 µM (inactive).

What about the GI50 (SW-620) of the same compound?
Its GI50 is 99.3 µM (inactive).

And the GI50 (NCI-H226)?
Its GI50 is 91.6 µM (inactive).

What about the GI50 (HOP-92) of the same compound?
The GI50 was 23.5 µM (inactive).

And the GI50 (OVCAR-8)?
Its GI50 is 73.1 µM (inactive).

What about the GI50 (SK-MEL-5) of the same compound?
The GI50 was 25.9 µM (inactive).

How did the GI50 (A498) turn out when Cn1c(=O)c2[nH]cnc2n(CC(=O)O)c1=O was run?
Its GI50 is > 100 µM (inactive).

And the GI50 (NCI-H522)?
Its GI50 is > 100 µM (inactive).

And the GI50 (OVCAR-3)?
Its GI50 is > 100 µM (inactive).

And the GI50 (K562)?
Its GI50 is > 100 µM (inactive).

And the GI50 (ACHN)?
Its GI50 is > 100 µM (inactive).

What about the GI50 (SF-268) of the same compound?
The GI50 was > 100 µM (inactive).

And the GI50 (OVCAR-5)?
The GI50 was > 100 µM (inactive).

What about the GI50 (786-0) of the same compound?
The GI50 was > 100 µM (inactive).

What about the GI50 (SK-OV-3) of the same compound?
The GI50 was > 100 µM (inactive).

And the GI50 (HT-29)?
The GI50 was > 100 µM (inactive).

And the GI50 (IGROV-1)?
The GI50 was > 100 µM (inactive).

What about the GI50 (SW-620) of the same compound?
The GI50 was > 100 µM (inactive).

What about the GI50 (NCI-H226) of the same compound?
The GI50 was > 100 µM (inactive).

What about the GI50 (HOP-92) of the same compound?
The GI50 was > 100 µM (inactive).

What about the GI50 (OVCAR-8) of the same compound?
The GI50 was > 100 µM (inactive).

What about the GI50 (SK-MEL-5) of the same compound?
Its GI50 is > 100 µM (inactive).
